# Test results reported in patent US20030064954A1, “Cationic amphiphilic 1,4-dihydropyridine derivatives useful for delivery of nucleotide containing compounds” (priority 2000, published 2003).
# Experiments:
# [1] = tested on: D407 (human retinal pigment epithelial) cells; assay: In vitro transfection of plasmid DNA, β-galactosidase activity per well; format: cell-based; settings: D 407
# [2] = tested on: CV-1P (African monkey green kidney fibroblasts cells); assay: as above; format: cell-based; settings: CVI-P
# Protocol: Transfer of plasmid DNA by various compounds was investigated by using CV-1P (African monkey green kidney fibroblasts cells) and D407 (human retinal pigment epithelial) cells.
# The cells were cultured in Dulbecco's modified Eagle's medium (DMEM, Gibco), supplemented with 10% fetal bovine serum (FBS), penicillin/streptomycin (100 units/ml and 100 μg/ml respectively) and 2 mM L-glutamine for D 407 cell line. Cell cultures were maintained at 37° C. in a 7% CO2/air incubator. The cells were collected, counted and seeded in growth medium (100 μl) into 96-well culture plate, 20 000 cells per well. One day later the medium was replaced with fresh medium without serum (150 μl)
# In the case of confluent CV1-P cells the medium (with of without serum) was changed on fourth day of cell growth before the transfection.
# The complexes at different derivative/DNA charge ratios for transfection procedure were prepared just before use in 50 mM MES—50 mM HEPES—75 mM NaCl buffer, pH 7.2 in separate 96 well plates. One hour after changing the serum-free medium with 10% serum the complexes were added to the cells at […]. Dose of DNA per well was 0.6 μg. After 5 h the complexes were removed, the cells were washed with PBS, and the normal growth medium was added. After 45 h of incubation at 37° C. the cells were lysed with 2% Triton X 100, twice deep frozen and the β-galactosidase activity in each well was determined spectrofotometrically with ELx800 automated microplate reader (Bio-Tex Instruments Inc., Winooski, Vt. USA) by monitoring the hydrolysis of o-nitrophenylgalactopyranoside (oNPG) at 405 nm. Purified β-galactosidase from E.coli was used to construct a standard curve and to calculate […] activity in the transfected cells. […] Transfection efficiencies are given as percentage in comparison to transfection efficiency of Lipofectin^R.
# plasmid DNA = assay: DNA condensation/complexation, EtBr displacement assay; format: binding
# Protocol: The ability of the cationic amphiphiles to condense DNA was assessed with an EtBr displacement assay. Briefly, in 96 well plates plasmid DNA (0.6 μg per well) was reacted with 0.002% EtBr in 20 mM HEPES—150 mM NaCl buffer, pH 7.4 and fluorescence intensity was measured at 530 nm (excitation) and 590 nm (emission). Intercalation of EtBr molecules between the base pairs of the DNA double helix results in increased fluorescence signal. Immediately thereafter, the cationic liposomes were added to form complexes at different +/−charge ratios and the quenching of fluorescence intensity of EtBr was monitored. Condensation of DNA upon complexation with liposomes results in the displacement of EtBr from DNA and in decreased fluorescence signal. Fluorescence was measured using FL 500 microplate fluorescence reader (Bio-Tek Instruments Inc., Winooski, Vt., USA).
# The values are expressed as percentage of the maximum fluorescence signal when EtBr bound to DNA in the absence of an amphiphile. Each data point is from at least triplicate experiment ±S.D.
# CVI-P cells = assay: Cytotoxicity of amphiphile/DNA complexes, percentage of survived cells
# D 407 cells = assay: as above; format: cell-based, human; parameters: concentration or dose not given beside the values
# [3] = amphiphile/DNA +/− charge ratio 0.5
# [4] = amphiphile/DNA +/− charge ratio 1
# [5] = amphiphile/DNA +/− charge ratio 2
# [6] = amphiphile/DNA +/− charge ratio 4
# [7] = amphiphile/DNA +/− charge ratio 8
compound,measurement,setting,value
Br.CCCCCCCCCCCCCCCC[n+]1cccc(C2C(C(=O)OCc3ccc([N+](=O)[O-])cc3)=C(C)NC(C)=C2C(=O)OCc2ccc([N+](=O)[O-])cc2)c1.[Br-],melting point,,89 to 93 °C
Br.CCCCCCCCCCCCCCCC[n+]1ccccc1C1C(C(=O)OCC)=C(C)NC(C)=C1C(=O)OCC.[Br-],melting point,,117 to 121 °C
"CCCCCCC[n+]1cccc(C2C(C(=O)OCC)=C(C)NC(C)=C2C(=O)OCC)c1.I.[I-] [Example 5a, 3′,5′-Bis(ethoxycarbonyl)-1-heptyl-1′,4′-dihydro-2′,6′-dimethyl-3,4′-bipyridinium iodide]",melting point,,165 to 167 °C
"CCCOCCOC(=O)C1=C(C)NC(C)=C(C(=O)OCCOCCC)C1c1ccc[n+](C)c1.I.[I-] [VIII, 1′,4′-Dihydro-1,2′,6′-trimethyl-3′,5′-bis[(2-propoxyethoxy)-carbonyl]-3,4′-bipyridinium iodide]",melting point,,59 to 61 °C
Br.CCOC(=O)C1=C(C)NC(C)=C(C(=O)OCC)C1c1cc[n+](CC(=O)c2ccccc2)cc1.[Br-],melting point,,224 to 227 °C
Br.CCOC(=O)C1=C(C)NC(C)=C(C(=O)OCC)C1c1ccc[n+](CCCCCCCCCCCC(=O)O)c1.[Br-],melting point,,152 to 156 °C
"CCOC(=O)C1=C(C)NC(C)=C(C(=O)OCC)C1c1cccc[n+]1C.I.[I-] [Example 2v, 3′,5′-Bis(ethoxycarbonyl)-1′,4′-dihydro-1,2′,6′-trimethyl-2,4′-bipyridinium iodide]",melting point,,197 to 199 °C
CCOC(=O)C1=C(C)NC(C)=C(C(=O)OCC)C1c1ccc[n+](-c2ccc([N+](=O)[O-])cc2[N+](=O)[O-])c1.Cl.[Cl-],melting point,,178 to 180 °C
Br.CCCOCCOC(=O)C1=C(C)NC(C)=C(C(=O)OCCOCCC)C1c1ccc[n+](CC(=O)OCC)c1.[Br-],melting point,,144 to 146 °C
Br.CCCCCCCCCCCCCCCCOC(=O)C1=C(C)NC(C)=C(C(=O)OCCCCCCCCCCCCCCCC)C1c1ccc[n+](CC(=O)OCC)c1.[Br-],melting point,,99 to 102 °C
"CCCCCCCCCCCCOC(=O)C1=C(C)NC(C)=C(C(=O)OCCCCCCCCCCCC)C1c1ccc[n+](C)c1.I.[I-] [V, 3′,5′-Bis(dodecyloxycarbonyl)-1′,4′-dihydro-1,2′,6′-trimethyl-3,4′-bipyridinium iodide]",transfection efficiency,[1]; [3],"0,26 β-galactosidase units per well"
same,transfection efficiency,[1]; [4],"8,10 β-galactosidase units per well"
same,transfection efficiency,[1]; [5],"8,78 β-galactosidase units per well"
same,transfection efficiency,[1]; [6],"0,55 β-galactosidase units per well"
same,transfection efficiency,[1]; [7],"0,33 β-galactosidase units per well"
same,transfection efficiency,[2]; [3],"0,48 β-galactosidase units per well"
same,transfection efficiency,[2]; [4],"0,69 β-galactosidase units per well"
same,transfection efficiency,[2]; [5],"27,19 β-galactosidase units per well"
same,transfection efficiency,[2]; [6],"5,95 β-galactosidase units per well"
same,transfection efficiency,[2]; [7],"1,4 β-galactosidase units per well"
same,"complexation, percentage of the maximum fluorescence signal when EtBr bound to DNA in the absence of an amphiphile",plasmid DNA; [3],"88,8%"
same,"complexation, percentage of the maximum fluorescence signal when EtBr bound to DNA in the absence of an amphiphile",plasmid DNA; [4],"80,33%"
same,"complexation, percentage of the maximum fluorescence signal when EtBr bound to DNA in the absence of an amphiphile",plasmid DNA; [5],"75,17%"
same,"complexation, percentage of the maximum fluorescence signal when EtBr bound to DNA in the absence of an amphiphile",plasmid DNA; [6],"71,93%"
same,"complexation, percentage of the maximum fluorescence signal when EtBr bound to DNA in the absence of an amphiphile",plasmid DNA; [7],"72,4%"
same,cytotoxicity as a percentage of survived cells,CVI-P cells; [3],"100,21%"
same,cytotoxicity as a percentage of survived cells,CVI-P cells; [4],"87,18%"
same,cytotoxicity as a percentage of survived cells,CVI-P cells; [5],"71,79%"
same,cytotoxicity as a percentage of survived cells,CVI-P cells; [6],"40,55%"
same,cytotoxicity as a percentage of survived cells,CVI-P cells; [7],"8,67%"
same,cytotoxicity as a percentage of survived cells,D 407 cells; [3],"85,27%"
same,cytotoxicity as a percentage of survived cells,D 407 cells; [4],"66,05%"
same,cytotoxicity as a percentage of survived cells,D 407 cells; [5],"55,61%"
same,cytotoxicity as a percentage of survived cells,D 407 cells; [6],"9,14%"
same,cytotoxicity as a percentage of survived cells,D 407 cells; [7],"0,28%"
"CCCCCCCCCCCCCCCCOC(=O)C1=C(C[n+]2ccccc2)NC(C[n+]2ccccc2)=C(C(=O)OCCCCCCCCCCCCCCCC)C1c1ccccc1.[Br-].[Br-] [XXV, 1,1′-[(3,5-Dihexadecyloxycarbonyl-4-phenyl-1,4-dihydropyridine-2,6-diyl)dimethylene]bispyridinium dibromide]",transfection efficiency,[1]; [3],"0,57 β-galactosidase units per well"
same,transfection efficiency,[1]; [4],"0,31 β-galactosidase units per well"
same,transfection efficiency,[1]; [5],066 β-galactosidase units per well
same,transfection efficiency,[1]; [6],"2,05 β-galactosidase units per well"
same,transfection efficiency,[1]; [7],"2,47 β-galactosidase units per well"
same,transfection efficiency,[2]; [3],"0,23 β-galactosidase units per well"
same,transfection efficiency,[2]; [4],"0,24 β-galactosidase units per well"
same,transfection efficiency,[2]; [5],"17,5 β-galactosidase units per well"
same,transfection efficiency,[2]; [6],"15,15 β-galactosidase units per well"
same,transfection efficiency,[2]; [7],"9,04 β-galactosidase units per well"
same,"complexation, percentage of the maximum fluorescence signal when EtBr bound to DNA in the absence of an amphiphile",plasmid DNA; [3],"94,16%"
same,"complexation, percentage of the maximum fluorescence signal when EtBr bound to DNA in the absence of an amphiphile",plasmid DNA; [4],"89,06%"
same,"complexation, percentage of the maximum fluorescence signal when EtBr bound to DNA in the absence of an amphiphile",plasmid DNA; [5],"83,1%"
same,"complexation, percentage of the maximum fluorescence signal when EtBr bound to DNA in the absence of an amphiphile",plasmid DNA; [6],"77,14%"
same,"complexation, percentage of the maximum fluorescence signal when EtBr bound to DNA in the absence of an amphiphile",plasmid DNA; [7],"71,37%"
same,cytotoxicity as a percentage of survived cells,CVI-P cells; [3],"92,82%"
same,cytotoxicity as a percentage of survived cells,CVI-P cells; [4],"99,29%"
same,cytotoxicity as a percentage of survived cells,CVI-P cells; [5],"101,03%"
same,cytotoxicity as a percentage of survived cells,CVI-P cells; [6],"107,03%"
same,cytotoxicity as a percentage of survived cells,CVI-P cells; [7],"100,65%"
same,cytotoxicity as a percentage of survived cells,D 407 cells; [3],"97,52%"
same,cytotoxicity as a percentage of survived cells,D 407 cells; [4],"97,73%"
same,cytotoxicity as a percentage of survived cells,D 407 cells; [5],"101,48%"
same,cytotoxicity as a percentage of survived cells,D 407 cells; [6],"89,12%"
same,cytotoxicity as a percentage of survived cells,D 407 cells; [7],"62,05%"
"CCCCCCCC/C=C\CCCCCCCC(=O)OCC(C[N+](C)(C)C)OC(=O)CCCCCCC/C=C\CCCCCCCC.[Cl-] (stereo not drawn) [DOTAP, N-(1-(2,3-dioleoyloxy)propyl)-N,N,N-trimethylammoniummethyl-sulfate, reference compound]",transfection efficiency,[1]; [3],"0,7 β-galactosidase units per well"
same,transfection efficiency,[1]; [4],"4,8 β-galactosidase units per well"
same,transfection efficiency,[1]; [5],"25,05 β-galactosidase units per well"
same,transfection efficiency,[1]; [6],"19,6 β-galactosidase units per well"
same,transfection efficiency,[1]; [7],"4,92 β-galactosidase units per well"
same,transfection efficiency,[2]; [3],"0,61 β-galactosidase units per well"
same,transfection efficiency,[2]; [4],"0,9 β-galactosidase units per well"
same,transfection efficiency,[2]; [5],"15,58 β-galactosidase units per well"
same,transfection efficiency,[2]; [6],"10,5 β-galactosidase units per well"
same,transfection efficiency,[2]; [7],"3,19 β-galactosidase units per well"
same,"complexation, percentage of the maximum fluorescence signal when EtBr bound to DNA in the absence of an amphiphile",plasmid DNA; [3],"86,72%"
same,"complexation, percentage of the maximum fluorescence signal when EtBr bound to DNA in the absence of an amphiphile",plasmid DNA; [4],"76,11%"
same,"complexation, percentage of the maximum fluorescence signal when EtBr bound to DNA in the absence of an amphiphile",plasmid DNA; [5],"69,15%"
same,"complexation, percentage of the maximum fluorescence signal when EtBr bound to DNA in the absence of an amphiphile",plasmid DNA; [7],"65,47%"
same,cytotoxicity as a percentage of survived cells,CVI-P cells; [3],"92,45%"
same,cytotoxicity as a percentage of survived cells,CVI-P cells; [4],"92,09%"
same,cytotoxicity as a percentage of survived cells,CVI-P cells; [5],"91,87%"
same,cytotoxicity as a percentage of survived cells,CVI-P cells; [6],"97,89%"
same,cytotoxicity as a percentage of survived cells,CVI-P cells; [7],"102,3%"
same,cytotoxicity as a percentage of survived cells,D 407 cells; [3],"85,08%"
same,cytotoxicity as a percentage of survived cells,D 407 cells; [4],"87,48%"
same,cytotoxicity as a percentage of survived cells,D 407 cells; [5],"80,32%"
same,cytotoxicity as a percentage of survived cells,D 407 cells; [6],"81,34%"
same,cytotoxicity as a percentage of survived cells,D 407 cells; [7],"76,11%"
